Results: ChEMBL document CHEMBL2074115, “Anthracyclines modulate multidrug resistance protein (MRP) mediated organic anion transport” (Biochim Biophys Acta, 1997)
Where a name gives a salt, the structure may show the parent alone.

Columns and labels:
Set-up in all cases: scale not given: the % may be the effect or the level left
[1] = biological target: T1, Multidrug resistance-associated protein 1 (MRP1) (Homo sapiens, UniProt P33527); test: TP_TRANSPORTER: inhibition of DNP-SG uptake (DNP-SG: 0.01 uM, VP-16: 10 uM) in membrane vesicles from GLC4/ADR cells; assay type: functional, cell membranes, GLC-4/ADR, Membrane vesicle; conditions: probe DNP-SG, read-out: Activity
T1 sequence (P33527 whole entry): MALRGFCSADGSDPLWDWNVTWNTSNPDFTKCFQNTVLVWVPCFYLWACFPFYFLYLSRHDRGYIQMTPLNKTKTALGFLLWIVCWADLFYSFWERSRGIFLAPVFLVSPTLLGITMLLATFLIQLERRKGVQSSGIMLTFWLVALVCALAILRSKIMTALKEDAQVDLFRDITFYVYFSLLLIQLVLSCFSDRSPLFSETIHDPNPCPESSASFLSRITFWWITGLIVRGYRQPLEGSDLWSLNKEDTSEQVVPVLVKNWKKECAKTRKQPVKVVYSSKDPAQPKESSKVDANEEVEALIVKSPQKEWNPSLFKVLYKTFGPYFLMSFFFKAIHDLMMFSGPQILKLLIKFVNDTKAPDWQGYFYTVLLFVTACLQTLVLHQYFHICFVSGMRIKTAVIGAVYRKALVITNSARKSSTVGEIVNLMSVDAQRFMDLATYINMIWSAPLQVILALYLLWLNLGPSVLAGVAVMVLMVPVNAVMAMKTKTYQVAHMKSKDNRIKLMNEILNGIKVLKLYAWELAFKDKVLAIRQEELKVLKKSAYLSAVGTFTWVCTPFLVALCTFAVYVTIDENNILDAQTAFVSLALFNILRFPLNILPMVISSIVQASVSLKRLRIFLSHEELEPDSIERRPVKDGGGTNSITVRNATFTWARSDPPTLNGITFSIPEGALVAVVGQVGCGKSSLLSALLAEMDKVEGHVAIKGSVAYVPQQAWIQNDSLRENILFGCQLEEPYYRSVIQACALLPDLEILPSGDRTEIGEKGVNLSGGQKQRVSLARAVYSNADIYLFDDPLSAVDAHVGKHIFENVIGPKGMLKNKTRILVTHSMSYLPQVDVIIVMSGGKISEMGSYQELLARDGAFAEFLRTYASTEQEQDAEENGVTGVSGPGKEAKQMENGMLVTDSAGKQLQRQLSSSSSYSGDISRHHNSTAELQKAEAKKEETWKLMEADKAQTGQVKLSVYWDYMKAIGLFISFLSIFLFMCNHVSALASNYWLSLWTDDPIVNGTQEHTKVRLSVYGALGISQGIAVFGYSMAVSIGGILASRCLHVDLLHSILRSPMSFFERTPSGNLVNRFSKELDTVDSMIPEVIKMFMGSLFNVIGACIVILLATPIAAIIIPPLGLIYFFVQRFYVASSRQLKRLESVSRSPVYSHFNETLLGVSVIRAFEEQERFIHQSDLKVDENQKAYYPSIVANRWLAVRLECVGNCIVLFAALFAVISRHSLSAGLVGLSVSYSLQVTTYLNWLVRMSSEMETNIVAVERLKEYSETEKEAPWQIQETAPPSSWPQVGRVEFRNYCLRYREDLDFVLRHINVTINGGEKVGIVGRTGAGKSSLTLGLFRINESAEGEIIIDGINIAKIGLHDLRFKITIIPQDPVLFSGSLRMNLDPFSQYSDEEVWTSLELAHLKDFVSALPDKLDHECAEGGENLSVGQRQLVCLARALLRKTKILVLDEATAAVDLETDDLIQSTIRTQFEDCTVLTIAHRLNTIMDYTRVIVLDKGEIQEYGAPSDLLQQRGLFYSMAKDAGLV

[2] = biological target: T1, Multidrug resistance-associated protein 1 (MRP1); test: TP_TRANSPORTER: inhibition of DNP-SG uptake (DNP-SG: 0.01 uM, TLC: 10 uM) in membrane vesicles from GLC4/ADR cells; assay type: functional, cell membranes, GLC-4/ADR, Membrane vesicle; conditions: probe DNP-SG, read-out: Activity
[3] = biological target: T1, Multidrug resistance-associated protein 1 (MRP1); test: TP_TRANSPORTER: inhibition of DNP-SG uptake (DNP-SG: 0.01 uM, Calcein-AM: 10 uM) in membrane vesicles from GLC4/ADR cells; assay type: functional, cell membranes, GLC-4/ADR, Membrane vesicle; conditions: probe DNP-SG, read-out: Activity
[4] = biological target: T2, Multidrug resistance-associated protein 1 (Homo sapiens, UniProt P33527); test: TP_TRANSPORTER: inhibition of DNP-SG uptake (DNP-SG: 0.01 uM, ICG: 10 uM) in membrane vesicles from GLC4/ADR cells; assay type: functional, cell membranes, Membrane vesicle; conditions: glc-4/adr
T2 sequence (P33527 whole entry): as above

[5] = biological target: T1, Multidrug resistance-associated protein 1 (MRP1); test: TP_TRANSPORTER: inhibition of DNP-SG uptake (DNP-SG: 0.01 uM, Calcein: 500 uM) in membrane vesicles from GLC4/ADR cells; assay type: functional, cell membranes, GLC-4/ADR, Membrane vesicle; conditions: probe DNP-SG, read-out: Activity
[6] = biological target: T1, Multidrug resistance-associated protein 1 (MRP1); test: TP_TRANSPORTER: inhibition of DNP-SG uptake (DNP-SG: 0.01 uM, MTX: 10 uM) in membrane vesicles from GLC4/ADR cells; assay type: functional, cell membranes, GLC-4/ADR, Membrane vesicle; conditions: probe DNP-SG, read-out: Activity
[7] = biological target: T2, Multidrug resistance-associated protein 1; test: TP_TRANSPORTER: inhibition of DNP-SG uptake (DNP-SG: 0.01 uM, TLCAS: 10 uM) in membrane vesicles from GLC4/ADR cells; assay type: functional, cell membranes, Membrane vesicle; conditions: glc-4/adr
[8] = biological target: T1, Multidrug resistance-associated protein 1 (MRP1); test: TP_TRANSPORTER: inhibition of DNP-SG uptake (DNP-SG: 0.01 uM, TCAS: 10 uM) in membrane vesicles from GLC4/ADR cells; assay type: functional, cell membranes, GLC-4/ADR, Membrane vesicle; conditions: probe DNP-SG, read-out: Activity
[9] = biological target: T2, Multidrug resistance-associated protein 1; test: TP_TRANSPORTER: inhibition of DNP-SG uptake (DNP-SG: 0.01 uM, Taxol: 10 uM) in membrane vesicles from GLC4/ADR cells; assay type: functional, cell membranes, Membrane vesicle; conditions: glc-4/adr
[10] = biological target: T1, Multidrug resistance-associated protein 1 (MRP1); test: TP_TRANSPORTER: inhibition of DNP-SG uptake (DNP-SG: 0.01 uM, Idarbicin: 10 uM) in membrane vesicles from GLC4/ADR cells; assay type: functional, cell membranes, GLC-4/ADR, Membrane vesicle; conditions: probe DNP-SG, read-out: Activity

Question: How did the activity at 10 µM [1] turn out when `COc1cc([C@@H]2c3cc4c(cc3[C@@H](O[C@@H]3O[C@@H]5CO[C@@H](C)O[C@H]5[C@H](O)[C@H]3O)[C@H]3COC(=O)[C@H]23)OCO4)cc(OC)c1O` [ETOPOSIDE] was run?
Answer: Its activity at 10 µM is 50%.

Question: For `C[C@H](CCC(=O)NCCS(=O)(=O)O)[C@H]1CC[C@H]2[C@@H]3CC[C@@H]4C[C@H](O)CC[C@]4(C)[C@H]3CC[C@]12C` [TAUROLITHOCHOLIC ACID], which activity at 10 µM [2] is on record?
Answer: The activity at 10 µM was 56%.

Question: How did the activity at 10 µM [3] turn out when `CC(=O)OCOC(=O)CN(CC(=O)OCOC(C)=O)Cc1c(OC(C)=O)ccc2c1Oc1c(ccc(OC(C)=O)c1CN(CC(=O)OCOC(C)=O)CC(=O)OCOC(C)=O)C21OC(=O)c2ccccc21` was run?
Answer: The activity at 10 µM was 44%.

Question: How did the Activity [4] turn out when `CC1(C)C(/C=C/C=C/C=C/C=C2/N(CCCCS(=O)(=O)[O-])c3ccc4ccccc4c3C2(C)C)=[N+](CCCCS(=O)(=O)[O-])c2ccc3ccccc3c21.[Na+]` [INDOCYANINE GREEN] was run?
Answer: Its Activity is 34%.

Question: Which activity at 500 µM [5] does the source give for `O=C(O)CN(CC(=O)O)Cc1cc2c(cc1O)Oc1cc(O)c(CN(CC(=O)O)CC(=O)O)cc1C21OC(=O)c2ccccc21` [OFTASCEINE] here?
Answer: Its activity at 500 µM is 40%.

Question: With `CN(Cc1cnc2nc(N)nc(N)c2n1)c1ccc(C(=O)N[C@@H](CCC(=O)O)C(=O)O)cc1` [METHOTREXATE] as the molecule, how does the activity at 10 µM [6] read?
Answer: Its activity at 10 µM is 82%.

Question: Which Activity [7] does the source give for `C[C@H](CCC(=O)NCCS(=O)(=O)O)C1CC[C@H]2[C@@H]3CC[C@@H]4C[C@H](OS(=O)(=O)O)CC[C@]4(C)[C@H]3CC[C@]12C` (stereo not given in full) here?
Answer: Its Activity is 11%.

Question: For `C[C@H](CCC(=O)NCCS(=O)(=O)O)C1CC[C@H]2[C@@H]3[C@H](O)C[C@@H]4C[C@H](OS(=O)(=O)O)CC[C@]4(C)[C@H]3C[C@H](O)[C@]12C` (stereo not given in full) [TAUROCHOLATE SULFATE], which activity at 10 µM [8] is on record?
Answer: The activity at 10 µM was 76%.

Question: For `CC(=O)O[C@H]1C(=O)[C@@]2(C)[C@H]([C@H](OC(=O)c3ccccc3)[C@]3(O)C[C@H](OC(=O)[C@H](O)[C@@H](NC(=O)c4ccccc4)c4ccccc4)C(C)=C1C3(C)C)[C@]1(OC(C)=O)CO[C@@H]1C[C@@H]2O` [PACLITAXEL], which Activity [9] is on record?
Answer: Its Activity is 66%.

Question: With `CC(=O)[C@]1(O)Cc2c(O)c3c(c(O)c2[C@@H](O[C@H]2C[C@H](N)[C@H](O)[C@H](C)O2)C1)C(=O)c1ccccc1C3=O` [IDARUBICIN] as the molecule, how does the activity at 10 µM [10] read?
Answer: The activity at 10 µM was 52%.
